1 compound from PMC9456463, “Intelligent Drug Delivery by Peptide-Based Dual-Function Micelles” (International Journal of Molecular Sciences, 2022) can be followed below.

The data set has as its system 4T1 mouse breast cancer cell xenografted model. The experiment in a line: In vivo antitumor efficacy, 4T1 mouse breast cancer xenografted model. The settings on record: BALB/c female mice, 4T1 tumor. The method, then: All animal experiments were performed complying with the guidelines for the care and use of laboratory animals of the Peking University Animal Study Committee’s requirements. Experimental procedures were carried out by a protocol approved for institutional animal care. A total of 24 BALB/c female mice (5–6 weeks) were used in this study. The PBS suspension containing 2.5 × 10^4 4T1 cells was injected subcutaneously into female BALB/c mice. […] The body weight and tumor volume of each mouse were measured at regular intervals to evaluate the antitumor effects and toxicity of different drugs. […] One mouse from each group was randomly selected, and its major organs and tumor tissues were collected, then Hematoxylin and Eosin (H&E) staining were utilized to evaluate the degree of apoptosis in mice.

Take `COc1cccc2c1C(=O)c1c(O)c3c(c(O)c1C2=O)C[C@@](O)(C(=O)CO)C[C@@H]3O[C@H]1C[C@H](N)[C@H](O)[C@H](C)O1` [DOX, Doxorubicin]: where the note is “tail vein injection”, the “body weight change during treatment” value is “decreased significantly”. The final tumor weight by setting is: (tail vein injection on days 0, 4, 8, 12) 0.47 g; (tail vein injection on days 0, 4, 8, 12, listed as free DOX) 0.67 g. Moreover, under “tail vein injection on days 0, 4, 8, 12, group sacrificed on the 14th day”, the “tumor volume increase after 14 days” value was determined as 11.03 fold.
